Reference: patent publication US10925283B2, “Microbiocidal phenylamidine derivatives” (SYNGENTA PARTICIPATIONS AG, priority 2016, dated 2021)

Assays:
Type in all cases: in vivo
[1] = test system: Puccinia recondita f. sp. tritici; test: Puccinia recondita f. sp. tritici / wheat / leaf disc curative (brown rust); settings: foliar, wheat leaf segments cv. Kanzler, compound applied 1 day after inoculation, assessed 6-8 days after application, read-out: control of Puccinia recondita f. sp. tritici (percent disease control compared to untreated)
Experimental: Puccinia recondita f. Sp. Tritici/Wheat/Leaf Disc Curative (Brown Rust) Wheat leaf segments cv. Kanzler are placed on agar in multiwell plates (24-well format). The leaf segments are inoculated with a spore suspension of the fungus. Plates are stored in darkness at 19° C. and 75% rh. The formulated test compound diluted in water is applied 1 day after inoculation. The leaf segments are incubated at 19° C. and 75% rh under a light regime of 12 h light/12 h darkness in a climate cabinet and the activity of a compound is assessed as percent disease control compared to untreated when an appropriate level of disease damage appears in untreated check leaf segments (6-8 days after application).

[2] = test system: Blumeria graminis f. sp. tritici (Erysiphe graminis f. sp. tritici); test: Blumeria graminis f. sp. tritici / wheat / leaf disc preventative (powdery mildew on wheat); settings: foliar, wheat leaf segments cv. Kanzler, inoculated 1 day after application, assessed 6-8 days after application, read-out: control of Blumeria graminis f. sp. tritici (percent disease control compared to untreated)
Experimental: Blumeria graminis f. sp. tritici (Erysiphe graminis f. sp. tritici)/Wheat/Leaf Disc Preventative (Powdery Mildew on Wheat) Wheat leaf segments cv. Kanzler are placed on agar in a multiwell plate (24-well format) and sprayed with the formulated test compound diluted in water. The leaf disks are inoculated by shaking powdery mildew infected plants above the test plates 1 day after application. The inoculated leaf disks are incubated at 20° C. and 60% rh under a light regime of 24 h darkness followed by 12 h light/12 h darkness in a climate chamber and the activity of a compound is assessed as percent disease control compared to untreated when an appropriate level of disease damage appears on untreated check leaf segments (6-8 days after application).

[3] = test system: Puccinia recondita f. sp. tritici; test: Puccinia recondita f. sp. tritici / wheat / leaf disc preventative (brown rust); settings: foliar, wheat leaf segments cv. Kanzler, inoculated 1 day after application, assessed 7-9 days after application, read-out: control of Puccinia recondita f. sp. tritici (percent disease control compared to untreated)
Experimental: Puccinia recondita f. Sp. Tritici/Wheat/Leaf Disc Preventative (Brown Rust) Wheat leaf segments cv. Kanzler are placed on agar in multiwell plates (24-well format) and sprayed with the formulated test compound diluted in water. The leaf disks are inoculated with a spore suspension of the fungus 1 day after application. The inoculated leaf segments are incubated at 19° C. and 75% rh under a light regime of 12 h light/12 h darkness in a climate cabinet and the activity of a compound is assessed as percent disease control compared to untreated when an appropriate level of disease damage appears in untreated check leaf segments (7-9 days after application).

[4] = test system: Phakopsora pachyrhizi; test: Phakopsora pachyrhizi / soybean / preventative (soybean rust); settings: foliar, soybean leaf disks, inoculated one day after application, assessed 12-14 days after application, read-out: control of Phakopsora pachyrhizi (percent disease control compared to untreated)
Experimental: Phakopsora pachyrhizi/Soybean/Preventative (Soybean Rust) Soybean leaf disks are placed on water agar in multiwell plates (24-well format) and sprayed with the formulated test compound diluted in water. One day after application leaf discs are inoculated by spraying a spore suspension on the lower leaf surface. After an incubation period in a climate cabinet of 24-36 hours in darkness at 20° C. and 75% rh leaf disc are kept at 20° C. with 12 h light/day and 75% rh. The activity of a compound is assessed as percent disease control compared to untreated when an appropriate level of disease damage appears in untreated check leaf disks (12-14 days after application).

Measured: pest or weed control at 200 ppm

CCOCCOCC(O)(c1cc(C)c(/N=C/N(C)CC)cc1OC)C(F)(F)F (stereo not shown) [E.020, N′-[4-[1-(2-ethoxyethoxymethyl)-2,2,2-trifluoro-1-hydroxy-ethyl]-5-methoxy-2-methyl-phenyl]-N-ethyl-N-methyl-formamidine]
≥ 80%: all assays above

CC#CCOCC(O)(c1cc(C)c(/N=C/N(C)CC)cc1OC)C(F)(F)F (stereo not shown) [E.040, N′-[4-[1-(but-2-ynoxymethyl)-2,2,2-trifluoro-1-hydroxy-ethyl]-5-methoxy-2-methyl-phenyl]-N-ethyl-N-methyl-formamidine]
≥ 80%: all assays above

CCN(C)/C=N/c1cc(OC)c(C(O)(COCc2ccc(C)cc2)C(F)(F)F)cc1C (stereo not shown) [E.027, N-ethyl-N′-[5-methoxy-2-methyl-4-[2,2,2-trifluoro-1-hydroxy-1-(p-tolylmethoxymethyl)ethyl]phenyl]-N-methyl-formamidine]
≥ 80%: all assays above

CCCOCCC(O)(c1cc(C)c(/N=C/N(C)CC)cc1OC)C(F)(F)F (stereo not shown) [E.052, N-ethyl-N′-[4-[1-hydroxy-3-propoxy-1-(trifluoromethyl)propyl]-5-methoxy-2-methyl-phenyl]-N-methyl-formamidine]
≥ 80%: all assays above

CCN(C)/C=N/c1cc(OC)c(C(O)(CSc2ccc(F)cc2)C(F)(F)F)cc1C (stereo not shown) [E.068, N-ethyl-N′-[5-methoxy-2-methyl-4-[2,2,2-trifluoro-1-[(4-fluorophenyl)sulfanylmethyl]-1-hydroxy-ethyl]phenyl]-N-methyl-formamidine]
≥ 80%: all assays above

CCCOC1CCC(C(O)(c2cc(C)c(/N=C/N(C)CC)cc2OC)C(F)(F)F)CC1 (stereo not shown) [E.079, N-ethyl-N′-[5-methoxy-2-methyl-4-[2,2,2-trifluoro-1-hydroxy-1-(4-propoxycyclohexyl)ethyl]phenyl]-N-methyl-formamidine]
≥ 80%: all assays above

CCN(C)/C=N/c1cc(OC)c(C(O)(COC2CCCCC2)C(F)(F)F)cc1C (stereo not shown) [E.039, N′-[4-[1-(cyclohexoxymethyl)-2,2,2-trifluoro-1-hydroxy-ethyl]-5-methoxy-2-methyl-phenyl]-N-ethyl-N-methyl-formamidine]
≥ 80%: all assays above

CCN(C)/C=N/c1cc(OC)c(C(O)(C2CCOCC2)C(F)(F)F)cc1C (stereo not shown) [E.055, N-ethyl-N′-[5-methoxy-2-methyl-4-(2,2,2-trifluoro-1-hydroxy-1-tetrahydropyran-4-yl-ethyl)phenyl]-N-methyl-formamidine]
≥ 80%: all assays above

CCN(C)/C=N/c1cc(OC)c(C(O)(COC2CCC(C)CC2)C(F)(F)F)cc1C (stereo not shown) [E.042, N-ethyl-N′-[5-methoxy-2-methyl-4-[2,2,2-trifluoro-1-hydroxy-1-[(4-methylcyclohexoxy)methyl]ethyl]phenyl]-N-methyl-formamidine]
≥ 80%: all assays above

CCN(C)/C=N/c1cc(OC)c(C(O)(CCOc2ccc(F)cc2)C(F)(F)F)cc1C (stereo not shown) [E.053, N-ethyl-N′-[4-[3-(4-fluorophenoxy)-1-hydroxy-1-(trifluoromethyl)propyl]-5-methoxy-2-methyl-phenyl]-N-methyl-formamidine]
≥ 80%: all assays above

CCN(C)/C=N/c1cc(OC)c(C(O)(CSCc2ccccc2)C(F)(F)F)cc1C (stereo not shown) [E.069, N′-[4-[1-(benzylsulfanylmethyl)-2,2,2-trifluoro-1-hydroxy-ethyl]-5-methoxy-2-methyl-phenyl]-N-ethyl-N-methyl-formamidine]
≥ 80%: all assays above

C#CCOCCC(O)(c1cc(C)c(/N=C/N(C)CC)cc1OC)C(F)(F)F (stereo not shown) [E.050, N-ethyl-N′-[4-[1-hydroxy-3-prop-2-ynoxy-1-(trifluoromethyl)propyl]-5-methoxy-2-methyl-phenyl]-N-methyl-formamidine]
≥ 80%: all assays above

CCN(C)/C=N/c1cc(OC)c(C(O)(C/C(C)=N/OCc2ccccc2)C(F)(F)F)cc1C (stereo not shown) [E.081]
≥ 80%: all assays above

CCO/N=C/CC(O)(c1cc(C)c(/N=C/N(C)CC)cc1OC)C(F)(F)F (stereo not shown) [E.056, N′-[4-[(3E)-3-ethoxyimino-1-hydroxy-1-(trifluoromethyl)propyl]-5-methoxy-2-methyl-phenyl]-N-ethyl-N-methyl-formamidine]
≥ 80%: all assays above

CCCCOCC(O)(c1cc(C)c(/N=C/N(C)CC)cc1OC)C(F)(F)F (stereo not shown) [E.013, N′-[4-[1-(butoxymethyl)-2,2,2-trifluoro-1-hydroxy-ethyl]-5-methoxy-2-methyl-phenyl]-N-ethyl-N-methyl-formamidine]
≥ 80%: all assays above

CCN(C)/C=N/c1cc(OC)c(C(O)(CCOc2ccccc2)C(F)(F)F)cc1C (stereo not shown) [E.054, N-ethyl-N′-[4-[1-hydroxy-3-phenoxy-1-(trifluoromethyl)propyl]-5-methoxy-2-methyl-phenyl]-N-methyl-formamidine]
≥ 80%: all assays above

CCN(C)/C=N/c1cc(OC)c(C(O)(COC(C)c2ccccc2)C(F)(F)F)cc1C (stereo not shown) [E.028, N-ethyl-N′-[5-methoxy-2-methyl-4-[2,2,2-trifluoro-1-hydroxy-1-(1-phenylethoxymethyl)ethyl]phenyl]-N-methyl-formamidine]
≥ 80%: all assays above

CCN(C)/C=N/c1cc(OC)c(C(O)(CON=C(C)C)C(F)(F)F)cc1C (stereo not shown) [E.036, N-ethyl-N′-[5-methoxy-2-methyl-4-[2,2,2-trifluoro-1-hydroxy-1-[(isopropylideneamino)oxymethyl]ethyl]phenyl]-N-methyl-formamidine]
≥ 80%: all assays above

CCN(C)/C=N/c1cc(OC)c(C(O)(COc2ccccc2)C(F)(F)F)cc1C (stereo not shown) [E.047, N-ethyl-N′-[5-methoxy-2-methyl-4-[2,2,2-trifluoro-1-hydroxy-1-(phenoxymethyl)ethyl]phenyl]-N-methyl-formamidine]
≥ 80%: all assays above
